From patent US20170196834A1, “PREPARATION AND APPLICATION OF FLAVONOL AS BRAIN-TARGETING SYNERGIST” (GUANGDONG PHARMACEUTICAL UNIVERSITY, priority 2014, published 2017)
One block for each compound: values may come before it.

Key:
MCAO forebrain ischemia [1] = test: MCAO forebrain ischemia rats, improvement rate of cerebral infarction area (Example 2); type: in vivo; conditions: gavage, 7 days after administration
Protocol: In addition, […] of MCAO forebrain ischemia were prepared, and they were administered with solvent saline, 100 mg/kg LXN11 and ginsenoside Rg1 by gavage at 20 ml/kg, 10 rats per group; Animals were sacrificed 7 days after administration, to observe the improvement rate of cerebral infarction area.

[2] = water; cited from earlier work
[3] = system: 4-VO local cerebral ischemia; test: 4-VO local cerebral ischemia rats, nerve regeneration, learning and memory (Example 3); type: in vivo; conditions: 4-VO rats, gavage, 7 days after administration
Protocol: In addition, 40 rats of 4-VO local cerebral ischemia were prepared and they were administered with solvent saline, 100 mg/kg […], […] and stilbene glucoside by gavage at the volume of 20 ml/kg, 10 rats per group; Animals were sacrificed 7 days after administration, to observe the improve rate of nerve regeneration, learning and memory.

[4] = Stilbene glucoside in blood and brain tissues 0.5 h after intragastric administration, UPLC-MS (Example 3); type: in vivo; conditions: SD rats, 100 mg/kg stilbene glucoside, 0.5 h after administration
Protocol: Treatment Group: LXN2-1 and LXN2-2 were made into suspension. 5 SD rats were administered the suspension with the dose of 100 mg/kg stilbene glucoside and the volume of 20 ml/kg by intragastric administration;
Control group: stilbene glucoside extract was made into suspension. 5 SD rats were administered the suspension at the dose of 100 mg/kg stilbene glucoside and the volume of 20 ml/kg by intragastric administration;
The rats were drew blood 0.5 h after administration and then sacrificed under anaesthesia. Brain tissues were taken to prepare brain homogenates. The content of stilbene glucoside in the blood and brain tissues were detected by UPLC-MS.

MCAO forebrain ischemia [5] = test: MCAO forebrain ischemia rats, infarction area, nerve regeneration, learning and memory (Example 6); type: in vivo; conditions: 100 mg vinpocetine/edaravone/oxiracetam per kg, intragastric, 7 days after administration
Protocol: In addition, 70 rats of MCAO forebrain ischemia were prepared, and they were administrated with solvent saline, or administrated with LXN6, LXN7 or LXN8, containing vinpocetine, edaravone or oxiracetam, respectively, at a dosage of 100 mg vinpocetine/edaravone/oxiracetam per kg body weight, or administrated with vinpocetine, edaravone or oxiracetam at a dosage of 100 mg/kg.
Intragastric administration at an amount of 20 ml/kg was conducted, for 10 rats per group; Animals were sacrificed 7 days after administration, to observe the improvement rate of cerebral infarction area and the improvement rate of nerve regeneration, learning and memory ability.

[6] = Vinpocetine, edaravone, oxiracetam in blood and brain tissue 0.5 h after intragastric administration, UPLC-MS (Example 6); type: in vivo; conditions: rat, oral, SD rats, intragastric 100 mg/kg
Protocol: Treatment Group: LXN6, LXN7, LXN8 were made into suspensions respectively. Five SD rats were administered the suspensions at the dose of 100 mg/kg and the volume of 20 ml/kg by intragastric administration;
Control group: vinpocetine, edaravone, oxiracetam were made into suspension. Five SD rats were administered the suspension at the dose of 100 mg/kg and the volume of 20 ml/kg by intragastric administration;
The rats were drewd blood 0.5 h after administration, then sacrificed under anaesthesia. Brain tissues were taken to prepare brain homogenates. The content of active ingredient in the blood and brain tissues was detected by UPLC-MS.

Parkinson's disease = test: Clinical treatment of Parkinson's disease (LXN9, LXN10, levodopa); type: in vivo, human
Source text: (1) Clinical Data and Methods • Same as above.
Profile of patients: All selected patients were from department of neurology, which diagnosed with Parkinson's disease according to the Parkinson's disease diagnostic criteria in clinical examination during 2010-2014. a total of 120 cases, including 66 males, 54 females; aged 50-78 years, and 62.8 years on average, with the shortest duration of 1 year, and longest duration of 13 years, 3.6 years on average.
Levodopa tablet group: (specification of 250 mg/tablet) 1 tablet/time, 3 times/d.
LXN 10 capsule group: 250 mg/capsule, 1 capsule per time, 3 times a day.
Fifteen days as a course in all groups, a total of 9 months for medication; and during the period, other drugs regulating cerebral vasodilation, brain cell metabolism and neurological functions were discontinued. […]

[7] = Levodopa in blood and brain tissues 0.5 h after intragastric administration, UPLC-MS (Example 7); type: in vivo; conditions: rat, oral, SD rats, intragastric 100 mg/kg levodopa
Protocol: Five SD rats were administered the suspension at the dose of 100 mg/kg levodopa and the volume of 20 ml/kg by intragastric administration;
Control group: The levodopa was made into suspension. Five SD rats were administered the suspension at the dose of 100 mg/kg and the volume of 20 ml/kg by intragastric administration;
The rats were drew blood 0.5 h after administration, and then sacrificed under anaesthesia. Brain tissues were taken to prepare brain homogenates. The content of active ingredient in the blood and brain tissues was detected by UPLC-MS.

[8] = system: 6-hydroxydopamine PD models; test: 6-hydroxydopamine PD model rats, behavioural indexes; type: in vivo; conditions: 6-hydroxydopamine PD rats, 100 mg/kg levodopa by gavage, 15 days
Protocol: Animals were administered for 15 days, to observe the changes of five indexes, including slow-moving test, grasping experiment, tail stiffness, change of tonic symptoms and tremor test.

Compound: CC(C)=CCC[C@](C)(O[C@@H]1O[C@H](CO)[C@@H](O)[C@H](O)[C@H]1O)[C@H]1CC[C@]2(C)[C@@H]1[C@H](O)C[C@@H]1[C@@]3(C)CC[C@H](O)C(C)(C)[C@@H]3[C@@H](O[C@@H]3O[C@H](CO)[C@@H](O)[C@H](O)[C@H]3O)C[C@]12C [Rg1, ginsenoside Rg1]
Improvement rate of cerebral infarction area (MCAO forebrain ischemia [1]): 26.1 ± 7.1%

Compound: COc1ccc([C@@H]2CC(=O)c3c(O)cc(O[C@@H]4O[C@H](CO[C@@H]5O[C@@H](C)[C@H](O)[C@@H](O)[C@H]5O)[C@@H](O)[C@H](O)[C@H]4O)cc3O2)cc1O [Hesperidin]
solubility in water [2]: insoluble in water

Second part, led by results:

Content of stilbene glucoside in brain tissues [4]: 40.2 ± 16.1 ng/g
Plasma concentration of stilbene glucoside [4]: 3350 ± 680 ng/mL
Compound: stilbene glucoside
Improvement rate of learning and memory [3]: 31.6 ± 21.0%
Nerve regeneration rate [3]: 81.2 ± 35.6%

concentration at 0.5 h ([6]; blood, read-out: Edaravone content in the blood): 58300 ng/mL
concentration at 0.5 h ([6]; brain, read-out: Edaravone content in the brain tissue): 128 ng/mL
Compound: CC1=NN(c2ccccc2)C(=O)C1 [Edaravone, edaravone]
Improvement rate of learning and memory (MCAO forebrain ischemia [5]): 45.1
Infarction area (MCAO forebrain ischemia [5]): 24.1%
Nerve regeneration rate (MCAO forebrain ischemia [5]): 80%
Space exploration distance (MCAO forebrain ischemia [5]): 51.0 cm

concentration at 0.5 h ([7]; blood, read-out: levodopa Content in the blood): 114000 ng/mL
concentration at 0.5 h ([7]; brain, read-out: levodopa Content in the brain tissues): 284 ng/mL
Compound: N[C@@H](Cc1ccc(O)c(O)c1)C(=O)O [Levodopa, levodopa]
Daily Living Activity (UPDRS-II) Score, 1 month after treatment (Parkinson's disease; PD patients, n=40): 14.12 ± 5.31
Daily Living Activity (UPDRS-II) Score, 3 months after treatment (Parkinson's disease; PD patients, n=40): 12.49 ± 5.10
Daily Living Activity (UPDRS-II) Score, 6 months after treatment (Parkinson's disease; PD patients, n=40): 11.12 ± 3.31
Daily Living Activity (UPDRS-II) Score, 12 months after treatment (Parkinson's disease; PD patients, n=40): 10.32 ± 3.31
Daily Living Activity (UPDRS-II) Score, Before treatment (Parkinson's disease; PD patients, n=40): 15.61 ± 5.71
daily life satisfaction (LSIB) scores, 1 month after treatment (Parkinson's disease; PD patients, n=40): 13.11 ± 3.92
daily life satisfaction (LSIB) scores, 3 months after treatment (Parkinson's disease; PD patients, n=40): 14.91 ± 3.16
daily life satisfaction (LSIB) scores, 6 months after treatment (Parkinson's disease; PD patients, n=40): 16.85 ± 3.15
daily life satisfaction (LSIB) scores, 12 months after treatment (Parkinson's disease; PD patients, n=40): 17.24 ± 3.16
daily life satisfaction (LSIB) scores, Before treatment (Parkinson's disease; PD patients, n=40): 12.59 ± 2.02
motor complications (UPDRS-IV) scores, 1 month after treatment (Parkinson's disease; PD patients, n=40): 2.93 ± 0.86
motor complications (UPDRS-IV) scores, 3 months after treatment (Parkinson's disease; PD patients, n=40): 2.46 ± 0.61
motor complications (UPDRS-IV) scores, 6 months after treatment (Parkinson's disease; PD patients, n=40): 2.15 ± 0.56
motor complications (UPDRS-IV) scores, 12 months after treatment (Parkinson's disease; PD patients, n=40): 1.79 ± 0.56
motor complications (UPDRS-IV) scores, Before treatment (Parkinson's disease; PD patients, n=40): 3.59 ± 1.02
motor function examination (UPDRS-III) scores, 1 month after treatment (Parkinson's disease; PD patients, n=40): 34.16 ± 7.91
motor function examination (UPDRS-III) scores, 3 months after treatment (Parkinson's disease; PD patients, n=40): 28.91 ± 6.61
motor function examination (UPDRS-III) scores, 6 months after treatment (Parkinson's disease; PD patients, n=40): 24.85 ± 6.56
motor function examination (UPDRS-III) scores, 12 months after treatment (Parkinson's disease; PD patients, n=40): 21.15 ± 6.56
motor function examination (UPDRS-III) scores, Before treatment (Parkinson's disease; PD patients, n=40): 37.99 ± 10.23
psychiatric, behavioral, and emotional scores (UPDRS-1), 1 month after treatment (Parkinson's disease; PD patients, n=40): 3.15 ± 0.81
psychiatric, behavioral, and emotional scores (UPDRS-1), 3 months after treatment (Parkinson's disease; PD patients, n=40): 2.29 ± 0.73
psychiatric, behavioral, and emotional scores (UPDRS-1), 6 months after treatment (Parkinson's disease; PD patients, n=40): 1.85 ± 0.53
psychiatric, behavioral, and emotional scores (UPDRS-1), 12 months after treatment (Parkinson's disease; PD patients, n=40): 1.79 ± 0.59
psychiatric, behavioral, and emotional scores (UPDRS-1), Before treatment (Parkinson's disease; PD patients, n=40): 3.59 ± 1.02
Curative effect for PD: Overall response rate (ORR) (Parkinson's disease; clinically cured, markedly effective and effective cases): 80%
Curative effect for PD: Clinically cured % (Parkinson's disease; of 40 cases): 0%
Curative effect for PD: Clinically cured n (Parkinson's disease; of 40 cases): 0
Curative effect for PD: Effective % (Parkinson's disease; of 40 cases): 32.2%
Curative effect for PD: Effective n (Parkinson's disease; of 40 cases): 13
Curative effect for PD: Ineffective % (Parkinson's disease; of 40 cases): 20.0%
Curative effect for PD: Ineffective n (Parkinson's disease; of 40 cases): 8
Curative effect for PD: Markedly effective % (Parkinson's disease; of 40 cases): 47.8%
Curative effect for PD: Markedly effective n (Parkinson's disease; of 40 cases): 19
Duration of slow-moving test [8]: 15.5 min
EMG group discharge frequency [8]: 3.1 times/sec
Grip Test Duration [8]: 40.1 min
Muscle tremor frequency [8]: 10.1 times, minutes
tail stiffness time [8]: 10.2 min
